One experiment concerns A549 cells. The experiment is described as follows: Proliferation Assay (A549 viability, Cell Titer Fluor, 72 hours). It counts as cell-based. The following applies: Homo sapiens. Here is the method: A549 cells were routinely maintained in RPMI 1640 media (Gibco catalog number 11875-093) supplemented with 10% dialyzed fetal bovine serum using a humidified incubator (37° C., 5% CO2 and ambient O2). In preparation for the viability assay, cells were inoculated into 384-well black CulturPlates (Perkin Elmer) at a density of 1000 cells/well in a volume of 40 uL. Following a 24-hour incubation at 37° C., 5% CO2 and ambient O2, cells were treated with compound (10 uL) in a final DMSO concentration of 0.5% (v/v). The microplates were then incubated for 72 hours (37° C., 5% CO2 and ambient O2). Cell Titer Fluor (Promega) was subsequently added (10 uL of 6× reagent) and mixed for 15 minutes at room temperature. The plates were then incubated for 30 minutes (37° C., 5% CO2 and ambient O2) and fluorescence was subsequently read on the Perkin Elmer Envision plate reader. IC50 values were calculated using a four-parameter logistic curve fit.
Non-limiting examples include the following compounds and pharmaceutically acceptable salts thereof. […] “ND” indicates no data.

The target of experiment [1] is purified recombinant human GAC (GLS1) (Homo sapiens (Human), UniProt O94925). The experiment is described as follows: GLS1 Enzymatic Activity Assay (dual-coupled enzymatic assay, resorufin/Amplex UltraRed readout).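 Further: glutamate from GAC coupled via glutamate oxidase and peroxidase to resorufin, read as fluorescence (ex 530, em 590 nm) kinetically or at 20 min, four-parameter logistic IC50 fit.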 It counts as biochemical.

Each structure is given as a SMILES string.

purified recombinant human GAC (GLS1), sequence (O94925 other isoform, or with tags, fused parts or gaps): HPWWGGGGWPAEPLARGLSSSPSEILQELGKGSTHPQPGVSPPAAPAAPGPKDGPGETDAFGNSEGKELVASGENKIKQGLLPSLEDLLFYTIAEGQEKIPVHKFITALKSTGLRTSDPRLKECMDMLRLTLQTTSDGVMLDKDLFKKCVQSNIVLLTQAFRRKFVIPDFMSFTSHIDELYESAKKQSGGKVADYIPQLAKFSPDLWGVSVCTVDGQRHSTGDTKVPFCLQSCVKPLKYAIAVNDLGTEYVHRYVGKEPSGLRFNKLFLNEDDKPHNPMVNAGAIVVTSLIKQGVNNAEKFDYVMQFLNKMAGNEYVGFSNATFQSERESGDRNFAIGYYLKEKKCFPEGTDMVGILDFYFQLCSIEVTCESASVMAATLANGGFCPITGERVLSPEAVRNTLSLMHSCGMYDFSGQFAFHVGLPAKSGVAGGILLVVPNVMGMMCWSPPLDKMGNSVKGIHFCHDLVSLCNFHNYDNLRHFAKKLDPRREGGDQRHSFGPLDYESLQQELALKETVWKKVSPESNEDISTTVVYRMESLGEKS

Consider `CNC(=O)c1cn(CC(F)CCc2nnc(C(=O)NCc3cc(C(F)(F)F)ccn3)s2)nn1` (racemic) [Example 508, 5-(3-fluoro-4-(4-(methylcarbamoyl)-1H-1,2,3-triazol-1-yl)butyl)-N-((4-(trifluoromethyl)pyridin-2-yl)methyl)-1,3,4-thiadiazole-2-carboxamide], for which the 50% effective concentration (EC50) in the experiment with A549 cells fell in the range of 0.1 to 0.5 µM. In addition, in experiment [1], the IC50 was in the range of 0.1 to 0.5 µM.

In the case of `CNC(=O)c1cn(C[C@@H](F)CCc2nnc(C(=O)NCc3cc(C(F)(F)F)ccn3)s2)nn1` (single isomer, unassigned) [Example 220], in the experiment on A549 cells (A549, 72 h), the EC50 was 0.5 to 5 µM. Further, the 50% inhibitory concentration (IC50) in experiment [1] lay within 0.1 to 0.5 µM.

As for `CNC(=O)c1cn(C[C@H](F)CCc2nnc(C(=O)NCc3cc(C(F)(F)F)ccn3)s2)nn1` (single isomer, unassigned) [Example 221], the half-maximal effective concentration (EC50) in the experiment with A549 cells (A549, 72 h) lay in the range of 0.1 to 0.5 µM. In experiment [1], the IC50 lay in the range of 0.1 to 0.5 µM.

Molecule `O=C(Cc1cccc(OC(F)(F)F)c1)Nc1nnc(CCCCn2cc(C(=O)NCc3cccnc3)nn2)s1` [Example 1, N-(pyridin-3-ylmethyl)-1-[4-(5-{2-[3-(trifluoromethoxy)phenyl]acetamido}-1,3,4-thiadiazol-2-yl)butyl]-1H-1,2,3-triazole-4-carboxamide] showed an EC50 in the experiment on A549 cells (A549, 72 h) of less than 0.1 µM. In experiment [1], the IC50 is less than 0.1 µM.

With `CNC(=O)c1cn(CCCCc2nnc(NC(=O)Cc3cccc(OC(F)(F)F)c3)s2)nn1` [Example 2, N-Methyl-1-(4-(5-(2-(3-(trifluoromethoxy)phenyl)acetamido)-1,3,4-thiadiazol-2-yl)butyl)-1H-1,2,3-triazole-4-carboxamide], the EC50 with A549 cells (A549, 72 h) is less than 0.1 µM. In addition, the IC50 in experiment [1] is less than 0.1 µM.

Take `NC(=O)c1cn(CCCCc2nnc(NC(=O)Cc3cccc(OC(F)(F)F)c3)s2)nn1` [Example 3, 1-(4-(5-(2-(3-(Trifluoromethoxy)phenyl)acetamido)-1,3,4-thiadiazol-2-yl)butyl)-1H-1,2,3-triazole-4-carboxamide]: in the experiment with A549 cells (A549, 72 h), the 50% effective concentration (EC50) was in the range of 0.1 to 0.5 µM. Moreover, the IC50 in experiment [1] was 0.1 to 0.5 µM.

The molecule `O=C(Cc1ccccc1)Nc1nnc(CCCCCn2cc(C(=O)NCc3ccccc3)nn2)s1` [Example 4, N-Benzyl-1-(5-(5-(2-phenylacetamido)-1,3,4-thiadiazol-2-yl)pentyl)-1H-1,2,3-triazole-4-carboxamide] yielded an EC50 in the experiment with A549 cells (A549, 72 h) of 0.1 to 0.5 µM. In addition, in experiment [1], the IC50 was 0.1 to 0.5 µM.

In the experiment with A549 cells (A549, 72 h), `COCCNC(=O)c1nnc(CCCCc2ccc(NC(=O)Cc3cccc(OC(F)(F)F)c3)nn2)s1` [Example 6, N-(2-methoxyethyl)-5-(4-(6-(2-(3-(trifluoromethoxy)phenyl)acetamido)pyridazin-3-yl)butyl)-1,3,4-thiadiazole-2-carboxamide] returned an EC50 of less than 0.1 µM. Besides, the IC50 in experiment [1] was less than 0.1 µM.

`COCCNC(=O)c1nnc(CCCCn2cc(C(=O)NCc3cccc(C(F)(F)F)c3)nn2)s1` [Example 7, N-(2-methoxyethyl)-5-(4-(4-(3-(trifluoromethyl)benzylcarbamoyl)-1H-1,2,3-triazol-1-yl)butyl)-1,3,4-thiadiazole-2-carboxamide] had a half-maximal effective concentration (EC50) with A549 cells (A549, 72 h) of 0.1 to 0.5 µM. The IC50 in experiment [1] was in the range of 0.1 to 0.5 µM.

As for `O=C(Cc1cccc(OC(F)(F)F)c1)Nc1nnc(CCCCn2cc(C(=O)NCC3CC3)nn2)s1` [Example 11, N-(cyclopropylmethyl)-1-[4-(5-{2-[3-(trifluoromethoxy)phenyl]acetamido}-1,3,4-thiadiazol-2-yl)butyl]-1H-1,2,3-triazole-4-carboxamide], in the experiment with A549 cells (A549, 72 h), the concentration giving a half-maximal response (EC50) lay in the range of 0.1 to 0.5 µM. In addition, in experiment [1], the IC50 was less than 0.1 µM.

In the experiment with A549 cells (A549, 72 h), `O=C(Cc1cccc(OC(F)(F)F)c1)Nc1nnc(CCCCn2cc(C(=O)NCC3CCOC3)nn2)s1` (stereo not drawn) [Example 12, N-(oxolan-3-ylmethyl)-1-[4-(5-{2-[3-(trifluoromethoxy)phenyl]acetamido}-1,3,4-thiadiazol-2-yl)butyl]-1H-1,2,3-triazole-4-carboxamide] showed a 50% effective concentration (EC50) of less than 0.1 µM. In addition, the IC50 in experiment [1] is less than 0.1 µM.

In the experiment on A549 cells (A549, 72 h), `O=C(Cc1ccccc1)Nc1nnc(CCCCn2cc(C(=O)NCCc3ccccc3)nn2)s1` [Example 13, 1-{4-[5-(2-phenylacetamido)-1,3,4-thiadiazol-2-yl]butyl}-N-(2-phenylethyl)-1H-1,2,3-triazole-4-carboxamide] registered an EC50 of 0.5 to 5 µM. Besides, the concentration for half-maximal inhibition (IC50) in experiment [1] is less than 0.1 µM.

For the molecule `O=C(Cc1ccccc1)Nc1nnc(CCCCn2cc(C(=O)NCc3ccccc3)nn2)s1` [Example 15, N-benzyl-1-{4-[5-(2-phenylacetamido)-1,3,4-thiadiazol-2-yl]butyl}-1H-1,2,3-triazole-4-carboxamide], the concentration giving a half-maximal response (EC50) in the experiment with A549 cells (A549, 72 h) is 0.1 to 0.5 µM. For the same molecule, the IC50 in experiment [1] was less than 0.1 µM.

`O=C(Cc1cccc(OC(F)(F)F)c1)Nc1nnc(CCCCn2cc(C(=O)NCc3ccccc3)nn2)s1` [Example 16, N-benzyl-[4-(5-{2-[3-(trifluoromethoxy)phenyl]acetamido}-1,3,4-thiadiazol-2-yl)butyl]-1H-1,2,3-triazole-4-carboxamide] came in with an EC50 with A549 cells (A549, 72 h) of less than 0.1 µM. Further, in experiment [1], the IC50 was less than 0.1 µM.

In the experiment with A549 cells (A549, 72 h), `O=C(Cc1cccc(OC(F)(F)F)c1)Nc1nnc(CCCCn2cc(C(=O)NCCO)nn2)s1` [Example 17, N-(2-hydroxyethyl)-1-[4-(5-{2-[3-(trifluoromethoxy)phenyl]acetamido}-1,3,4-thiadiazol-2-yl)butyl]-1H-1,2,3-triazole-4-carboxamide] yielded an EC50 of 0.1 to 0.5 µM. In experiment [1], the IC50 lay in the range of 0.1 to 0.5 µM.

In the experiment with A549 cells (A549, 72 h), `CC(C)(NC(=O)c1cn(CCCCc2nnc(NC(=O)Cc3cccc(OC(F)(F)F)c3)s2)nn1)c1ccccc1` [Example 18, N-(2-phenylpropan-2-yl)-1-[4-(5-{2-[3-(trifluoromethoxy)phenyl]acetamido}-1,3,4-thiadiazol-2-yl)butyl]-1H-1,2,3-triazole-4-carboxamide] showed an EC50 of 0.1 to 0.5 µM. In addition, the half-inhibitory concentration (IC50) in experiment [1] lay in the range of 0.1 to 0.5 µM.

In the experiment on A549 cells (A549, 72 h), `CNC(=O)c1cn(CCCCc2ccc(NC(=O)Cc3cc(-c4ccc(F)cc4C(F)(F)F)ccn3)nn2)nn1` [Example 606, 1-(4-(6-(2-(4-(4-fluoro-2-(trifluoromethyl)phenyl)pyridin-2-yl)acetamido)pyridazin-3-yl)butyl)-N-methyl-1H-1,2,3-triazole-4-carboxamide] yielded an EC50 of less than 0.1 µM.

Turning to `CNC(=O)c1cn(CCCCc2ccc(NC(=O)Cc3cc(-c4cccc(OC(F)(F)F)c4F)ccn3)nn2)nn1` [Example 607, 1-(4-(6-(2-(4-(2-fluoro-3-(trifluoromethoxy)phenyl)pyridin-2-yl)acetamido)pyridazin-3-yl)butyl)-N-methyl-1H-1,2,3-triazole-4-carboxamide], the concentration for a half-maximal effect (EC50) in the experiment on A549 cells (A549, 72 h) was less than 0.1 µM.

On to `CNC(=O)c1cn(CCCCc2ccc(NC(=O)Cc3cc(-c4cccc(Cl)c4OC(F)(F)F)ccn3)nn2)nn1` [Example 608, 1-(4-(6-(2-(4-(3-chloro-2-(trifluoromethoxy)phenyl)pyridin-2-yl)acetamido)pyridazin-3-yl)butyl)-N-methyl-1H-1,2,3-triazole-4-carboxamide], for which the EC50 in the experiment with A549 cells (A549, 72 h) is less than 0.1 µM.

Molecule `CNC(=O)c1cn(CCCCc2ccc(NC(=O)Cc3cc(-c4cc(F)ccc4C)ccn3)nn2)nn1` [Example 609, 1-(4-(6-(2-(4-(5-fluoro-2-methylphenyl)pyridin-2-yl)acetamido)pyridazin-3-yl)butyl)-N-methyl-1H-1,2,3-triazole-4-carboxamide] came in with a concentration for a half-maximal effect (EC50) with A549 cells (A549, 72 h) of less than 0.1 µM.

For the origin of these results see patent US10344025B2, “GLS1 inhibitors for treating disease” (Board of Regents, The University of Texas System, priority 2014, dated 2019).
